Source: patent publication EP2769738B1, “Conjugated TLR7 and/or TLR8 and TLR2 polycationic agonists” (Invivogen, priority 2013, dated 2014)
Values joined by “and” are separate entries in the source; they are usually repeats but may differ in a detail not shown here. Equal entries are not always repeated.

Experiment: Determination of nanoparticle (lipoplex) size by dynamic light scattering
Format: physicochemical
Conditions: ratio 3:24 (w:w); for Conformity (C)/ Non-conformity (NC) / Mean Diameter (nm): complexes with pDNA; for Mean Diameter (nm): dynamic light scattering at 25°C; for Mean Diameter (nm) / PDI: triplicate measurements; for PDI: polydispersity index of complexes with pDNA, 25°C
Method: • 1. Preparative HPLC Method: Unless otherwise indicated, the compounds described herein were purified by RP-MPLC ARMEN® Spot Flash Liquid Chromatography (ARMEN Instrument, Saint Ave, France) on a preparative column (SVF D26) packed with 25-40 µm C18 resin (Merck chimie SAS), by applying a linear gradient of 0-10% MeCN in NH4OAc (10 mM) solution (pH = 9) over 60 min at a 15 mL/min flow rate. The purification was monitored at 254 nm. Suitable fractions were pooled and lyophilised. • 2. Proton NMR Spectra: Unless otherwise indicated, all ^1H NMR spectra were run on a Bruker series 300 MHz instrument. Where so characterized, all observed protons are reported as parts-per-million (ppm) downfield from tetramethylsilane (TMS) or other internal reference in the appropriate solvent indicated. NMR spectra were recorded on a Brucker 300 spectrometer. For ^1H (300 MHz) spectra δ values were referenced to CDCI3-d1 (7.26 ppm), DMSO- d6 (2.50 ppm), D2O-d2 (4.79 ppm) or MeOD-d4 (3.31 ppm). The peak patterns are indicated as follows: s: singlet, sl: large singlet, d: doublet, t: triplet, q: quartet, m: multiplet. • 3. Mass Spectra (MS): Analyses were run on an Agilent Model 6130 quadrupole MS. Unless otherwise indicated, all mass spectral data for starting materials, intermediates and/or exemplary compounds are reported as mass/charge (m/z), having an (M+H)^+ molecular ion. The molecular ion reported was obtained by electrospray detection method (commonly referred to as an ESI MS). Compounds having an isotopic atom, such as bromine and the like, are generally reported according to the detected isotopic pattern, as appreciated by those skilled in the art. • 4. Particle size: Particle size was determined using a Malvern Nanosizer (Malvern, Worcestershire, UK) and Malvern ZETASIZER.RTM. (Malvern, Worcestershire, UK). • 5. Naming Convention The compounds disclosed and described herein have been named using the naming convention provided with Chem-Draw Ultra 11.0 software, available in Chem. Office. In some instances, compounds were named with the term "spermine" inserted where appropriate. For example, where the spermine is substituted with Boc, "N1,N5,N10-TriBoc-spermine" is added to the Chem-Draw nomenclature in the appropriate place. Chem-Draw utilizes the ISIS Draw software compound naming convention, as appreciated by those skilled in the art.
For pDNA:TLR7-TLR2 polyamine molecules complexes, a ratio pDNA:TLR7-TLR2 polyamine molecules of 3:24 (w:w) was prepared in serum-free culture medium or in 5% glucose. The TLR7-TLR2 conjugated compound of interest was prediluted in serum-free culture medium or in 5% glucose and incubated for 5 minutes at room temperature, prior to the addition of an endotoxin-free, salt-free preparation of pDNA. In these experiments, the pBsr2pCpGLacZh plasmid was used in the pDNA:TLR7-TLR2 polyamine molecule complexes. The pDNA:TLR7-TLR2 polyamine molecule mixtures were incubated at room temperature for 30 minutes to allow the formation of the complex. The control used in these experiments was the cationic lipid transfection agent LyoVec™ (InvivoGen) prepared in a similar manner.
In order to confirm that TLR7-TLR2 polyamine molecules complex DNA, lipoplex size was determined. The physical characterization of complex was achieved by dynamic light scattering using the analytical equipment for laser diffraction Zetasizer Nano-ZS (Malvern). pDNA:TLR7-TLR2 polyamine molecule complexes were prepared as described above. Subsequently, 50µl of pDNA: TLR7-TLR2 polyamine molecule complexes were placed into a disposable sizing cuvette and measurements were made under conditions defined according to manufacturer's instructions. The measurements were made at 25°C in triplicate and a size distribution report was obtained. […]

Structure (SMILES) | Conformity (C)/ Non-conformity (NC) | Mean Diameter (nm) | PDI
CCCCCCCCCCCCCCCC(=O)OCC(CSC[C@H](N)C(=O)NCCCNCCCCNCCCNC(=O)CNC(=O)c1ccc(Cn2c(O)nc3c(N)nc(NCCCC)nc32)cc1)OC(=O)CCCCCCCCCCCCCCC (stereo partly drawn) [CL553, (20R)-20-amino-1-(4-((6-amino-2-(butylamino)-8-hydroxy-9H-purin-9-yl)methyl)phenyl)-1,4,19-trioxo-22-thia-2,5,9,14,18-pentaazapentacosane-24,25-diyl dipalmitate] | C (ranged between 140 and 200 nm in diameter were considered to show conformity) | 170.0 nm and 190.0 nm and 180,2 nm | 0,226 and 0,230 and 0,237
CCCCCCCCCCCCCCCC(=O)OCC(CSC[C@H](N)C(=O)N[C@@H](CCC(=O)NCCCNCCCCNCCCN)C(=O)Nc1ccc(Cn2c(O)nc3c(N)nc(NCCCC)nc32)cc1)OC(=O)CCCCCCCCCCCCCCC (stereo partly drawn) [CL527, (6R,9S)-6,25-diamino-9-(4-((6-amino-2-(butylamino)-8-hydroxy-9H-purin-9-yl)methyl)phenylcarbamoyl)-7,12-dioxo-4-thia-8,13,17,22-tetraazapentacosane-1,2-diyl dipalmitate] | C (ranged between 140 and 200 nm in diameter were considered to show conformity) | 175,1 nm and 156,9 nm and 168,3 nm | 0,253 and 0,239 and 0,258
CCCCCCCCCCCCCCCC(=O)OCC(CSC[C@H](N)C(=O)N[C@@H](CCCCNC(=O)CNC(=O)c1ccc(Cn2c(O)nc3c(N)nc(NCCCC)nc32)cc1)C(=O)NCCCNCCCCNCCCN)OC(=O)CCCCCCCCCCCCCCC (stereo partly drawn) [CL475, (6R,9S)-6,23-diamino-9-(4-(2-(4-((6-amino-2-(butylamino)-8-hydroxy-9H-purin-9-yl)methyl)benzamido)acetamido)butyl)-7,10-dioxo-4-thia-8,11,15,20-tetraazatrico sane-1,2-diyl dipalmitate] | C (ranged between 140 and 200 nm in diameter were considered to show conformity) | 145,9 nm and 155,8 nm and 153,5 nm | 0,193 and 0,176 and 0,158
CCCCCCCCCCCCCCCC(=O)OCC(CSC[C@H](N)C(=O)NCCCC[C@H](NC(=O)c1ccc(Cn2c(O)nc3c(N)nc(NCCCC)nc32)cc1)C(=O)NCCCNCCCCNCCCN)OC(=O)CCCCCCCCCCCCCCC (stereo partly drawn) [CL486, (6R,13S)-6,27-diamino-13-(4-((6-amino-2-(butylamino)-8-hydroxy-9H-purin-9-yl)methyl)benzamido)-7,14-dioxo-4-thia-8,15,19,24-tetraazaheptacosane-1,2-diyl dipalmitate] | C (ranged between 140 and 200 nm in diameter were considered to show conformity) | 209,2 nm and 179,7 nm and 202,0 nm | 0,236 and 0,232 and 0,234
CCCCCCCCCCCCCCCC(=O)OCC(CSC[C@H](N)C(=O)N[C@@H](COC(=O)c1ccc(Cn2c(O)nc3c(N)nc(NCCCC)nc32)cc1)C(=O)NCCCNCCCCNCCCN)OC(=O)CCCCCCCCCCCCCCC (stereo partly drawn) [CL514, (6R,9S)-6,23-diamino-9-((4-((6-amino-2-(butylamino)-8-hydroxy-9H-purin-9-yl)methyl)benzoyloxy)methyl)-7,10-dioxo-4-thia-8,11,15,20-tetraazatricosane-1,2-diyl dipalmitate] | C (ranged between 140 and 200 nm in diameter were considered to show conformity) | 249,1 nm and 309,6 nm and 258,3 nm | 0,303 and 0,354 and 0,372
CCCCCCCCCCCCCCCC(=O)OCC(CSC[C@H](N)C(=O)NCCCC[C@H](NC(=O)CNC(=O)c1ccc(Cn2c(O)nc3c(N)nc(NCCCC)nc32)cc1)C(=O)NCCCNCCCCNCCCN)OC(=O)CCCCCCCCCCCCCCC (stereo partly drawn) [CL487, (6R,13S)-6,27-diamino-13-(2-(4-((6-amino-2-(butylamino)-8-hydroxy-9H-purin-9-yl)methyl)benzamido)acetamido)-7,14-dioxo-4-thia-8,15,19,24-tetraazaheptacosane-1,2-diyl dipalmitate] | C (ranged between 140 and 200 nm in diameter were considered to show conformity) | 148,1 nm and 165,6 nm and 160,0 nm | 0,23 and 0,255 and 0,241
